Test results taken from ChEMBL document CHEMBL1201862, “PubChem BioAssay data set” (2004).
Calls of active or inactive are those of the source.

Experiments:
Genome polyprotein = Genome polyprotein (Hepatitis C virus, UniProt Q2Q167); assay: HCV core protein dimerization inhibitors, dose response, biochemical, TR-FRET (AID 2159); set-up: species or system Hepacivirus hominis;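 also: blocks dimerization of HCV core protein measured by TR-FRET between tagged core106 pairs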
Jurkat = assay: antigen receptor-induced NF-kB inhibitors, dose response, Jurkat, luciferase reporter, luminescence, B- and T-cell (AID 489004); type: functional, cell-based; conditions: Homo sapiens;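 also: NF-kB luciferase reporter Jurkat cells stimulated with PMA plus ionomycin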
[1] = cytotoxicity in HEK-293T NF-kB-Luc cells, dose response, cytotoxicity control for B/T-cell NF-kB inhibitor project, cell-based, uHTS hits (AID 489019); type: functional;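 also: IC50 reflects cytotoxicity as loss of cell viability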
INS1 = assay: beta cell apoptosis inhibitors, cytokine rescue, dose response, luminescence, retest (AID 449756); type: functional, cell-based; conditions: Rattus norvegicus;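 also: cell death triggered by IL-1 beta plus TNF-alpha plus IFN-gamma mixture; protective hits raise ATP signal compared with cytokine alone wells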
[2] = Shn3 3'UTR reporter inhibitors, dose response, cell-based, Clone20 osteoblasts, firefly luciferase, cherry-picked (AID 624132); type: functional;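 also: firefly luciferase luminescence from reporter carrying the Shn3 3'UTR in osteoblasts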
[3] = HepG2 cell cytotoxicity, dose response, cytotoxicity control for Shn3 inhibitor project, CellTiter-Glo, cherry-picked (AID 624134); type: functional, cell-based
[4] = control 3'UTR Renilla luciferase suppression, dose response, counter-screen for Shn3 inhibitor project, cell-based, Clone20-Shn3RL, cherry-picked (AID 624133); type: functional
[5] = inhibitors of PGC1a acetylation in cells, dose response, cell-based, cherry-picked samples (AID 720514); type: functional;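 also: potency may reflect raised or lowered acetylation signal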
[6] = A549 cell cytotoxicity, dose response, cytotoxicity control, plate reader, cherry-pick, antagonist series (AID 743412); type: functional, cell-based
[7] = HepG2 cell cytotoxicity, dose response, cytotoxicity control, plate reader, cherry-pick, antagonist series (AID 743416); type: functional, cell-based
[8] = LGR2 antagonists, dose response, cell-based, HEK293, CRE-luciferase reporter, cherry pick, set 2 (AID 743343); type: functional;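 also: transfected cells were stimulated with diluted bursicon conditioned medium after compound addition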
[9] = MC4R antagonists, dose response, counter-screen for LGR2 antagonist project, cell-based, plate reader, cherry pick (AID 743444); type: functional;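 also: transfected HEK 293 cells stimulated with alpha-MSH peptide; potency of inhibitors of the alpha-MSH evoked signal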
[10] = HEK293 cell cytotoxicity, dose response, cytotoxicity control, plate reader, cherry-picked samples (AID 743446); type: functional, cell-based
[11] = growth suppression of PTEN-null colon cells, dose response, cell-based, HCT116 PTEN knockout (AID 1047); type: functional;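 also: HCT116 colon tumor cells with PTEN knocked out; cells exposed to compound for 60 hours before readout; potency for loss of cell viability measured by luminescence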
[12] = growth suppression of beta-catenin-knockout colon cells, dose response, cell-based, HCT116, human colon tumor (AID 1045); type: functional;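 also: HCT116 colon tumor cells with beta catenin knocked out; cells exposed to compound for 60 hours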
X-box-binding protein 1 = molecular target: T1, X-box-binding protein 1 (Homo sapiens, UniProt P17861); type: functional, Cricetulus griseus;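 also: confirmatory dose-response counter-screen serving a CHOP assay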
T1 sequence (P17861 whole entry): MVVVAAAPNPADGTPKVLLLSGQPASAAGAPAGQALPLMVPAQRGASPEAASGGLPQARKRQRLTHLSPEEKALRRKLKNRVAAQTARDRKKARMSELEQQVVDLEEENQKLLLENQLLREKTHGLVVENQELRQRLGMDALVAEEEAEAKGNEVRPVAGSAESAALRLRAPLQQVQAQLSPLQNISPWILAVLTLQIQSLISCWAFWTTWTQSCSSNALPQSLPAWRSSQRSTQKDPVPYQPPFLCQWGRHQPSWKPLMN

[13] = Artemis endonuclease inhibitor potency, dose response, biochemical, fluorescence intensity (AID 720701); type: functional;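 also: Artemis endonuclease enzyme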
[14] = molecular target: Luciferin 4-monooxygenase (Photinus pyralis, UniProt P08659); assay: firefly luciferase enzyme inhibitors, dose response, biochemical, luminescence (AID 1891)
Sequence of Luciferin 4-monooxygenase (P08659 whole entry): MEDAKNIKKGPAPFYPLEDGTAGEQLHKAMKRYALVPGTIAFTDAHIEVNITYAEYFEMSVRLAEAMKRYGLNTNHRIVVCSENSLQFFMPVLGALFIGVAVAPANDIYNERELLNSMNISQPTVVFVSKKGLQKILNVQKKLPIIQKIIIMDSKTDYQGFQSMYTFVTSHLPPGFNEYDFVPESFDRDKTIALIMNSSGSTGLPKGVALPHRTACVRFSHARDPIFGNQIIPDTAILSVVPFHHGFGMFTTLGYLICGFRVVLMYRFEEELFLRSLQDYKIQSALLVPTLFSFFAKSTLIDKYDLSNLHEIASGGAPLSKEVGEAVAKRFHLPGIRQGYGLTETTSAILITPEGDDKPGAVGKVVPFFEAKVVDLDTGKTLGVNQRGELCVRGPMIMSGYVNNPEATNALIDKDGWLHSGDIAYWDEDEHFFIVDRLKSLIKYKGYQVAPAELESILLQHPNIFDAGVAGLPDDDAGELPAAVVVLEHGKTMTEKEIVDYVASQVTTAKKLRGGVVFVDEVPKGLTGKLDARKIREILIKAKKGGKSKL

[15] = Luminescence Cell-Based Dose Confirmation HTS to Identify Inhibitors of Platelet Dense Granule Release. [Related pubchem assays: 1663 (Primary HTS), 1678 (Summary of Project)]; type: functional
[16] = Fluorescence Cell-Based Dose Response to Identify Inhibitors of Thrombin Receptor-Activating Peptide SFLLRN-Mediated P-Selectin Induction on Platelets. [Related pubchem assays: 1663 (Primary HTS), 1889 (retest at dose ), 1891 (counterscreen), 1678 (Project Summary)]; type: functional
Transthyretin = Transthyretin (Homo sapiens, UniProt P02766); assay: Luminescence-based cell-based high throughput dose response assay to identify activators of Transthyretin (TTR) transcription.; type: functional
[17] = molecular target: Heat shock protein HSP 90-alpha (Homo sapiens, UniProt P07900); assay: Luminescence-based dose response biochemical high throughput screening assay for inhibitors of the Heat Shock Protein 90 (HSP90). [Related pubchem assays: 1831 (Summary AID.), 1846 (Confirmation screen.), 1789 (Primary screen.)]
[18] = molecular target: T2, Tyrosine-protein phosphatase non-receptor type 7 (Homo sapiens, UniProt P35236); assay: inhibitors of human HePTP phosphatase, […], biochemical, absorbance, leukemia target (AID 521); type: functional
T2 sequence (P35236 whole entry): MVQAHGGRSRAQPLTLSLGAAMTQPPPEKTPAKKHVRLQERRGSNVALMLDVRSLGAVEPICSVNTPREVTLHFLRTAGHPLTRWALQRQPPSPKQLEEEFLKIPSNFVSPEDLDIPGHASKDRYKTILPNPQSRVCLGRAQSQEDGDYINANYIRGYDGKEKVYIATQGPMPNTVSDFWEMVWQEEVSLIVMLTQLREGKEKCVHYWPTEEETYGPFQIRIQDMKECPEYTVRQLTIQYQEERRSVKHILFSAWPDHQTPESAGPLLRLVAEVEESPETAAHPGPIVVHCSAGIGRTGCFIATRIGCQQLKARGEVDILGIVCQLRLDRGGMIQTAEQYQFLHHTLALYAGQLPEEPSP

Sequence of Genome polyprotein (Q2Q167 whole entry): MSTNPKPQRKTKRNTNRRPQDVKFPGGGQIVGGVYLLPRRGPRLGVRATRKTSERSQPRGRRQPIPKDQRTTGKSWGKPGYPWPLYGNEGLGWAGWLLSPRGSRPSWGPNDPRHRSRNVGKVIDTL

## Cc1ccc(OCC(=O)Nc2nnc(S(=O)(=O)N3CCC(C)CC3)s2)cc1
Genome polyprotein
  IC50: > 49.8 µM (not active)

## C#CC(=O)N(c1cccc(OC)c1)C(C(=O)NC1CCCC1)c1cccs1 (stereo not drawn)
Jurkat
  IC50: 0.25 µM (active)
[1]
  IC50: 28.4 µM (inactive)
INS1
  AC50: 0.65 µM (active)
[2]
  AC50: 3.8 µM (active)
[3]
  AC50: 3.76 µM (active)
[4]
  AC50: 9.76 µM (active)
[5]
  AC50: 3.82 µM (active)
[6]
  AC50: 8.46 µM (active)
[7]
  AC50: 0.96 µM (active)
[8]
  AC50: 2.53 µM (active)
[9]
  AC50: 2.25 µM (active)
[10]
  AC50: 1.65 µM (active)

## O=C(c1ccc2c3c(cccc13)C(=O)N(O)C2=O)N1CCCCC1
[11]
  EC50: 11 µM (active)
[12]
  EC50: 13.7 µM (active)
X-box-binding protein 1
  Absolute IC50 (XBP1): 10 µM
[13]
  IC50: 11.5 µM (active)

## COc1cc2c(cc1OC)C(/C=C(\O)c1ccc(NC(C)=O)cc1)=NCC2
[14]
  EC50: > 112 µM (not active)
[15]
  EC50: 3.33 µM (active)
[16]
  EC50: < 0.3 µM (active)

## CC(Oc1ccccc1)C(=O)N1CCN=C1SCc1ccccc1 (stereo not drawn)
Transthyretin
  EC50: > 167 µM (inactive)

## Cc1nc(NC(=O)/C=C/c2ccccc2)sc1C(=O)Nc1ccccc1Cl
[17]
  IC50: 2.91 µM (active)

## CC(NC(N)=O)C12CC3CC(CC(C3)C1)C2 (stereo not drawn)
[18]
  IC50: > 100 µM (not active)
